≈ marks a conversion by molar mass, not a printed value. Entries after “also recorded” stand apart in the source; their conditions may differ.

Test [1] deals with CR S. epidermidis (CRSE). Description: MIC of clinical ocular isolates (Example 1). The format is cell-based. Particulars: Staphylococcus epidermidis; CRSE clinical ocular isolates (n=26).
In test [2] the test system is CS S. epidermidis (CSSE). Kind of test: MIC of clinical ocular isolates (Example 1). Particulars: Staphylococcus epidermidis; CSSE clinical ocular isolates (n=26). The format is cell-based.
Test [3] deals with H. influenzae (HI). Description: MIC of clinical ocular isolates (Example 1). The format is cell-based. Particulars: Haemophilus influenzae; HI clinical ocular isolates (n=26).
For test [4], the system named is Serratia marcescens (SM). Description: MIC of clinical ocular isolates (Example 1). The format is cell-based. Particulars: SM clinical ocular isolates (n=27).
For test [5], the system named is P. aeruginosa (PA). Description: MIC of clinical ocular isolates (Example 1). In kind it is cell-based. Particulars: Pseudomonas aeruginosa; PA clinical ocular isolates (n=26).
Test [6] relates to Moraxella Species (MS). Kind of test: MIC of clinical ocular isolates (Example 1). In kind it is cell-based. Particulars: MS clinical ocular isolates (n=25).
Test [7] deals with St. viridans group (SV). Description: MIC of clinical ocular isolates (Example 1). In kind it is cell-based. Particulars: Streptococcus viridans.
For test [8], the system named is St. pneumoniae (SP). Description: MIC of clinical ocular isolates (Example 1). The format is cell-based. Particulars: Streptococcus pneumoniae; SP clinical ocular isolates (n=27).
The test system of test [9] is Ciprofloxacin Resistant (CR) S. aureus (CRSA). Description: MIC of clinical ocular isolates (Example 1). In kind it is cell-based. The following applies: Staphylococcus aureus; CRSA clinical ocular isolates (n=28).
In test [10] the test system is Ciprofloxacin Susceptible (CS) S. aureus (CSSA). Kind of test: MIC of clinical ocular isolates (Example 1). The following applies: Staphylococcus aureus; CSSA clinical ocular isolates (n=27). In kind it is cell-based.
Test [11] concerns Fluoroquinolone-Resistant Methicillin-Resistant Staphylococcus aureus Strain K950. Description: MIC characterization of strain K950. In kind it is cell-based. The following applies: read-out: MIC (Minimum Inhibitory Concentration).
For test [12], the system named is fluoroquinolone-resistant, methicillin-resistant Staphylococcus aureus (K950). Kind of test: NZW rabbit keratitis model, corneal colony counts. In kind it is in vivo. The following applies: for Statistical comparison of corneal colony counts (< = significantly fewer colony counts): drops every 15 min. The source says:
One purpose of the following experiments was to compare the efficacy of 1% Oligomer 2, 0.5% Oligomer 2, and 5% vancomycin in the treatment of a fluoroquinolone-resistant, methicillin-resistant Staphylococcus aureus infection in the NZW rabbit keratitis model with or without intact corneal epithelia.
Nothing was done to the right eyes.
One purpose of the following experiments was to compare the efficacy of 0.25% Oligomer 2, with and without 0.005% benzalkonium chloride, and 5% vancomycin in the treatment of a fluoroquinolone-resistant, methicillin-resistant Staphylococcus aureus infection in the NZW rabbit keratitis model with or without intact corneal epithelia. The 0.005% benzalkonium chloride has been added to try to increase the penetration of 0.25% Oligomer 2 through the corneal epithelium.
One purpose of the following experiments was to determine the efficacy of 0.25% Oligomer 4, with and without 200 μM Farnesol, and 200 μM Farnesol in the treatment of a fluoroquinolone-resistant and methicillin-resistant Staphylococcus aureus infection in the NZW rabbit keratitis model with or without intact corneal epithelia. The 200 μM Farnesol has been added to try to increase the efficacy and penetration of 0.25% Oligomer 4 through the corneal epithelium.

Test [13] is described as follows: NZW rabbit keratitis model, clinical evaluation (Total Ocular Score). Particulars: Oligomer 2 study, N 3. The procedure: Fifteen rabbits were received from Myrtles' Rabbitry, Thompson Station, TN. The clinical isolate of fluoroquinolone-resistant, methicillin-resistant (MRSA) Staphylococcus aureus (K950) was subcultured on 5% sheep blood agar and incubated at 37° C. in 6% CO2 overnight. The next morning, the MRSA strain was suspended in sterile trypticase soy broth to a 0.5 McFarland Standard, containing approximately 5×10^8 cfu/ml of bacteria. The absorbance of the suspension was measured at 650 nm using a Beckman DU-70 spectrophotometer. OD readings of 0.07 corresponded to 5×10^8 cfu/ml of bacteria. This concentration was appropriately diluted in sterile trypticase soy broth to provide the inoculum of approximately 1,000 (1.0×10^3) cfu/eye in 25 μl. Colony counts were performed on the inoculum to determine the actual cfu inoculated. Following general anesthesia with ketamine and xylazine and topical anesthesia with proparacaine and prior to bacterial inoculation in the left eyes, 6 mm areas of the corneal epithelia was removed centrally with an Amoils epithelial scrubber. Nothing was done to the right eyes. The 15 rabbits were then inoculated intrastromally in both eyes with 25 μl of the bacterial dilution of approximately 10^3 cfu/eye of the bacteria. The bacterial inoculation of the left eyes was directly under the epithelial defect created by the Amoils epithelial scrubber. The epithelia were removed in the left corneas in order to determine whether this layer of the cornea is a barrier for Oligomer 2 penetration when compared to the right cornea with an intact epithelium. A colony count was done on the inoculum to determine the actual cfu inoculated. The rabbits were immediately treated with analgesia in the form of and intramuscular injection of ketoprofen, 1.5 mg/kg. After 4 hours, the 15 rabbits were divided into 4 treatment groups and one untreated control group sacrificed at the onset of therapy. Both eyes of each rabbit of the treatment groups were treated with one 37 μl drop of the coded solutions or control Saline or 1 drop of vancomycin from its dropper bottle. The Oligomer 2 concentrations were masked and labeled as 1 and 2. The masked concentrations were 1% Oligomer 2 and 0.5% Oligomer 2 but the specific concentrations of solutions were not known to the lab workers who carried out the experiment. The vancomycin and control (Tris-Buffered Saline) were not masked.
Treatment was scheduled for every 15 minutes for 5 hours (21 total doses). However, PMX-1 and PMX-2 were exhausted after the 19th dose. Therefore, the actual treatment was 15 minutes for 4.5 hours (19 total doses). The 3 rabbits in group V were sacrificed 4 hours PI and large 9.5 mm buttons were removed from the corneas. These were placed in 1 ml of PBS and kept on ice. The corneal buttons were homogenized for 25 seconds on ice using the motorized homogenizer. After homogenization, colony counts were done on the homogenates using 5% sheep blood agar plates to determine the amount of bacteria contained in the corneas at the onset of therapy. Following the completion of therapy, the eyes were examined for clinical signs of infection. One hour after the final treatment, the treated rabbits (Groups I-IV) were sacrificed and large 9.5 mm buttons were removed from the corneas. These were placed in 1 ml of PBS and kept on ice. The corneal buttons were homogenized for 25 seconds on ice using the motorized homogenizer. After homogenization, colony counts were performed on the homogenates using 5% sheep blood agar plates to determine the amount of bacteria contained in the corneas after treatment. The next morning, the plates were counted and the number of cfu/eye of Staphylococcus aureus was determined for each cornea.
Fifteen rabbits were received from Myrtles' Rabbitry, Thompson Station, TN.

`CC(C)(C)c1cc(NC(=O)CCCCNC(=N)N)c(SCCNC(=N)N)c(NC(=O)c2cc(C(=O)Nc3cc(C(C)(C)C)cc(NC(=O)CCCCNC(=N)N)c3SCCNC(=N)N)ncn2)c1` [Oligomer 1]: the MIC50 in test [1] worked out at 0.03 µg/mL; in test [2], 0.03 µg/mL; in test [3], 16 µg/mL; in [4], 16 µg/mL; in test [5], 4 µg/mL; in test [6], 0.5 µg/mL. The MIC50 turned out to be 4 µg/mL in [7], 0.5 µg/mL in test [8], 0.25 µg/mL in test [9] and 0.125 µg/mL in [10]. Further, the MIC90 in [1] turned out to be 0.03 µg/mL; in test [2] it was 0.125 µg/mL; in test [3], 32 µg/mL; in [4] it was 64 µg/mL; in [5] it was 8 µg/mL; in [6], 0.5 µg/mL. In addition, the MIC90 came out at 16 µg/mL in [7], 1 µg/mL in test [8], 0.25 µg/mL in test [9] and 0.25 µg/mL in [10].
Turning to `CN[C@H](CC(C)C)C(=O)N[C@H]1C(=O)N[C@@H](CC(N)=O)C(=O)N[C@H]2C(=O)N[C@H]3C(=O)N[C@H](C(=O)N[C@H](C(=O)O)c4cc(O)cc(O)c4-c4cc3ccc4O)[C@H](O)c3ccc(c(Cl)c3)Oc3cc2cc(c3O[C@@H]2O[C@H](CO)[C@@H](O)[C@H](O)[C@H]2O[C@H]2C[C@](C)(N)[C@H](O)[C@H](C)O2)Oc2ccc(cc2Cl)[C@H]1O` [Vancomycin, reference compound], the MIC in test [11] is 2 µg/mL (≈ 1.38 µM). Moreover, the “Statistical comparison of corneal colony counts (< = significantly fewer colony counts)” value is reported as “Vancomycin<Saline Control” in test [12] (Ker-1 (Example 9), abraded (removed) epithelium, 19 doses); “Vancomycin<Saline Control; also recorded: Vancomycin<PMX-1; also recorded: Vancomycin<PMX-2” in [12] (Ker-1 (Example 9), intact epithelium, 19 doses); “Vancomycin<Saline Control” in test [12] (Ker-2 (Example 10), abraded (removed) epithelium, 21 doses); “Vancomycin<Saline Control; also recorded: Vancomycin<PMX-B” in test [12] (Ker-2 (Example 10), intact epithelium, 21 doses). In [12] (Log10 CFU/ml, < = significantly fewer colony counts), the “Effect of Abraded Epithelium on colony counts (Intact vs. Abraded, two sample T-test)” value is recorded as “Abraded = Intact”. Further, the “Effect of Abraded Epithelium on Effectiveness of Each Test Solution (colony counts, abraded vs. intact)” value in test [12] (Oligomer 2 study, two sample T-test, < = significantly fewer colony counts) was “Abraded = Intact”. The “Total Ocular Score, Median” value in test [13] (abraded epithelium) and in test [13] (intact epithelium) was 9.5 throughout.

Source of the values: patent publication US20130065818A1, “Arylamide Compounds And Compositions And Uses Thereof” (POLYMEDIX, priority 2006, published 2013).
